Reference: patent publication US20260217697A1, “COMPOUNDS COMPRISING HETEROARYL RINGS AND COMPOSITIONS AND METHODS THEREOF” (lonGen Therapeutics Co., Ltd., priority 2022, published 2026)

Target: T1, hTRPV3 (Homo sapiens, UniProt Q8NET8)
T1 construct: The commercially available plasmid with the full-length cDNA of hTRPV3 (791 aa) (NM_001258205.2); host or cells: HEK293T
T1 sequence (Q8NET8 1-791 isoform Q8NET8-2): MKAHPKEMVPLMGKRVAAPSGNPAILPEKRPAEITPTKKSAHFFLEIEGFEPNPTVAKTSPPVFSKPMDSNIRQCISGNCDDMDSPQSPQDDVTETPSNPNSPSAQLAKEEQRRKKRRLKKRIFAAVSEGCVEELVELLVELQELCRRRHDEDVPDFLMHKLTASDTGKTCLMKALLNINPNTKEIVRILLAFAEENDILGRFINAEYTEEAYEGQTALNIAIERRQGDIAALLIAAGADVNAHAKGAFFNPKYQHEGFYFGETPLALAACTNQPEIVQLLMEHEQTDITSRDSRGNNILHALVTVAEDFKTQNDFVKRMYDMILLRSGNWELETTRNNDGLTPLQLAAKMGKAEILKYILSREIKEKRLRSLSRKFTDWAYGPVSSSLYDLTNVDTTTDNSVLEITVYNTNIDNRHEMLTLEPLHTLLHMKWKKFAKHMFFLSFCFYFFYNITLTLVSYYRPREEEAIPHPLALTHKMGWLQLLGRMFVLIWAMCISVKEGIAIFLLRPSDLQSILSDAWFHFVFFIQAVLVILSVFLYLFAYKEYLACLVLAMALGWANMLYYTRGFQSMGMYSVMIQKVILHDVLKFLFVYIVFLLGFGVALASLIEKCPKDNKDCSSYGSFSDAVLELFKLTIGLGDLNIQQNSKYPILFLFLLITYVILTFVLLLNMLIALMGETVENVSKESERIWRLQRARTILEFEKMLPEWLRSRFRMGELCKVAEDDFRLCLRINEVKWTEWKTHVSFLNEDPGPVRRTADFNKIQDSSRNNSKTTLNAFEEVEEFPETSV
Experiment: Whole-cell patch-clamp recording of hTRPV3 current in transfected HEK293T cells (2-APB induced)
Format: cell-based
Settings: current induced by 300 μM 2-APB, compounds tested up to 10 μM, room temperature
Method in brief: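 IC50 comes from Hill fits, 0–100% bounds, of percent block of 2-APB-induced current, with compounds perfused at up to 10 μM. Currents elicited at +80/−80 mV (400-ms steps, 2-s interval, 0 mV hold), room temperature, symmetric NaCl/EDTA/HEPES pH 7.4 solutions. Cells: hTRPV3-transfected HEK293T, used 18 h after transfection.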

IC50 [nM]	SMILES
100 to 1000	CCC(C)(C)C(=O)N1CC2(C1)Oc1cc(C(F)(F)F)ccc1-c1nc(NC(=O)c3c(OC)ncnc3OC)sc12 [compound 74, N-(1-(2,2-dimethylbutanoyl)-7′-(trifluoromethyl)spiro[azetidine-3,4′-chromeno[4,3-d]thiazol]-2′-yl)-4,6-dimethoxypyrimidine-5-carboxamide]
100 to 1000	CCOC(=O)N1CC2(C1)Oc1cc(C(F)(F)F)ccc1-c1nc(NC(=O)c3c(OC)ncnc3OC)sc12 [compound 78, ethyl 2′-(4,6-dimethoxypyrimidine-5-carboxamido)-7′-(trifluoromethyl)spiro[azetidine-3,4′-chromeno[4,3-d]thiazole]-1-carboxylate]
≥ 10000	CCC1(CC)Oc2cc(C(F)(F)F)ccc2-c2nc(NC(=O)c3c(OC)nc(O)nc3OC)sc21 [compound 79]
≥ 10000	CCC1(CC)Oc2cc(C(F)(F)F)ccc2-c2nc(NC(=O)c3c(OC)nc(N)nc3OC)sc21 [compound 80, 2-amino-N-(4,4-diethyl-7-(trifluoromethyl)-4H-chromeno[4,3-d]thiazol-2-yl)-4,6-dimethoxypyrimidine-5-carboxamide]
100 to 1000	C#Cc1ccc2c(c1)OC(CC)(CC)c1sc(NC(=O)c3c(OC)ncnc3OC)nc1-2 [compound 81, N-(4,4-diethyl-7-ethynyl-4H-chromeno[4,3-d]thiazol-2-yl)-4,6-dimethoxypyrimidine-5-carboxamide]
≥ 10000	CCC1(CC)Oc2ccc(C(F)(F)F)cc2-c2nc(NC(=O)c3c(OC)ncnc3OC)sc21 [compound 83, N-(4,4-diethyl-8-(trifluoromethyl)-4H-chromeno[4,3-d]thiazol-2-yl)-4,6-dimethoxypyrimidine-5-carboxamide]
≥ 10000	CCC1(CC)Oc2cc(C(F)(F)F)ccc2-c2nc(NC(=O)c3cc(OC)nnc3Cl)sc21 [compound 89, 3-chloro-N-(4,4-diethyl-7-(trifluoromethyl)-4H-chromeno[4,3-d]thiazol-2-yl)-6-methoxypyridazine-4-carboxamide]
1000 to 10000	CCC1(CC)Oc2cc(C(F)(F)F)ccc2-c2nc(NC(=O)c3cc(Cl)nnc3OC)sc21 [compound 90, 6-chloro-N-(4,4-diethyl-7-(trifluoromethyl)-4H-chromeno[4,3-d]thiazol-2-yl)-3-methoxypyridazine-4-carboxamide]
≥ 10000	CCC1(CC)Oc2cc(C(F)(F)F)ccc2-c2nc(NC(=O)c3cc(OC)nnc3OC)sc21 [compound 91, N-(4,4-diethyl-7-(trifluoromethyl)-4H-chromeno[4,3-d]thiazol-2-yl)-3,6-dimethoxypyridazine-4-carboxamide]
100 to 1000	COC(=O)N1CC2(C1)Oc1cc(C(F)(F)F)ccc1-c1nc(NC(=O)c3c(OC)ncnc3OC)sc12 [compound 92, methyl 2′-(4,6-dimethoxypyrimidine-5-carboxamido)-7′-(trifluoromethyl)spiro[azetidine-3,4′-chromeno[4,3-d]thiazole]-1-carboxylate]
1000 to 10000	CCC1(CC)Oc2cc(C(F)(F)F)ccc2-c2nc(NC(=O)c3c(C)n[nH]c3C)sc21 [compound 93, N-(4,4-diethyl-7-(trifluoromethyl)-4H-chromeno[4,3-d]thiazol-2-yl)-3,5-dimethyl-1H-pyrazole-4-carboxamide]
≥ 10000	CCC1(CC)Oc2cc(C(F)(F)F)ccc2-c2nc(NC(=O)c3c[nH]nc3OC)sc21 [compound 94, N-(4,4-diethyl-7-(trifluoromethyl)-4H-chromeno[4,3-d]thiazol-2-yl)-3-methoxy-1H-pyrazole-4-carboxamide]
1000 to 10000	CCC1(CC)Oc2cc(C(F)(F)F)ccc2-c2nc(NC(=O)c3nccnc3OC)sc21 [compound 96, N-(4,4-diethyl-7-(trifluoromethyl)-4H-chromeno[4,3-d]thiazol-2-yl)-3-methoxypyrazine-2-carboxamide]
100 to 1000	[2H]C([2H])([2H])Oc1ncnc(OC([2H])([2H])[2H])c1C(=O)Nc1nc2c(s1)C(CC)(CC)Oc1cc(C(F)(F)F)ccc1-2 [compound 97, N-(4,4-diethyl-7-(trifluoromethyl)-4H-chromeno[4,3-d]thiazol-2-yl)-4,6-bis(methoxy-d3)pyrimidine-5-carboxamide]
100 to 1000	CCC1(CC)Oc2cc(C(F)(F)F)ccc2-c2nc(NC(=O)c3c(OC)ccnc3OC)sc21 [compound 98, N-(4,4-diethyl-7-(trifluoromethyl)-4H-chromeno[4,3-d]thiazol-2-yl)-2,4-dimethoxynicotinamide]

More lines, now with the values behind:

SMILES	IC50 [nM]
COc1ncnc(OC)c1C(=O)Nc1nc2c(ccc3cc(C#N)ccc32)s1 [compound 71, N-(7-cyanonaphtho[1,2-d]thiazol-2-yl)-4,6-dimethoxypyrimidine-5-carboxamide]	≥ 10000
COc1ncnc(OC)c1C(=O)Nc1nc2c(cnc3cc(C(F)(F)F)ccc32)s1 [compound 72, 4,6-dimethoxy-N-(7-(trifluoromethyl)thiazolo[5,4-c]quinolin-2-yl)pyrimidine-5-carboxamide]	1000 to 10000
COc1ncnc(OC)c1C(=O)Nc1nc2c(s1)C1(CCN(S(C)(=O)=O)CC1)Oc1cc(C(F)(F)F)ccc1-2 [compound 73, 4,6-dimethoxy-N-(1′-(methylsulfonyl)-7-(trifluoromethyl)spiro[chromeno[4,3-d]thiazole-4,4′-piperidin]-2-yl)pyrimidine-5-carboxamide]	1000 to 10000
COc1ncnc(OC)c1C(=O)Nc1nc2c(s1)C1(CN(C(=O)c3ccccc3)C1)Oc1cc(C(F)(F)F)ccc1-2 [compound 75, N-(1-benzoyl-7′-(trifluoromethyl)spiro[azetidine-3,4′-chromeno[4,3-d]thiazol]-2′-yl)-4,6-dimethoxypyrimidine-5-carboxamide]	100 to 1000
COc1ncnc(OC)c1C(=O)Nc1nc2c(s1)C1(CN(C(=O)c3ccco3)C1)Oc1cc(C(F)(F)F)ccc1-2 [compound 76, N-(1-(furan-2-carbonyl)-7′-(trifluoromethyl)spiro[azetidine-3,4′-chromeno[4,3-d]thiazol]-2′-yl)-4,6-dimethoxypyrimidine-5-carboxamide]	1000 to 10000
CCCCOC(=O)N1CC2(C1)Oc1cc(C(F)(F)F)ccc1-c1nc(NC(=O)c3c(OC)ncnc3OC)sc12 [compound 77, butyl 2′-(4,6-dimethoxypyrimidine-5-carboxamido)-7′-(trifluoromethyl)spiro[azetidine-3,4′-chromeno[4,3-d]thiazole]-1-carboxylate]	100 to 1000
COc1ncnc(OC)c1C(=O)Nc1nc2c(s1)CCOc1cc(C(F)(F)F)ccc1-2 [compound 82, 4,6-dimethoxy-N-(8-(trifluoromethyl)-4,5-dihydrobenzo[2,3]oxepino[4,5-d]thiazol-2-yl)pyrimidine-5-carboxamide]	100 to 1000
COc1ncnc(OC)c1C(=O)Nc1nc2c(s1)Cc1cc(C(F)(F)F)ccc1-2 [compound 84, 4,6-dimethoxy-N-(6-(trifluoromethyl)-8H-indeno[1,2-d]thiazol-2-yl)pyrimidine-5-carboxamide]	1000 to 10000
COc1ncnc(OC)c1C(=O)Nc1nc2c(s1)C(C)(C)Nc1cc(C(F)(F)F)ccc1-2 [compound 85, N-(4,4-dimethyl-7-(trifluoromethyl)-4,5-dihydrothiazolo[5,4-c]quinolin-2-yl)-4,6-dimethoxypyrimidine-5-carboxamide]	1000 to 10000
COc1ncnc(OC)c1C(=O)Nc1nc2c(s1)COc1ccc(Cl)cc1-2 [compound 86, N-(8-chloro-4H-chromeno[4,3-d]thiazol-2-yl)-4,6-dimethoxypyrimidine-5-carboxamide]	1000 to 10000
COc1ncnc(OC)c1C(=O)Nc1nc2c(s1)C(C)(C)N(C)c1cc(C(F)(F)F)ccc1-2 [compound 87, 4,6-dimethoxy-N-(4,4,5-trimethyl-7-(trifluoromethyl)-4,5-dihydrothiazolo[5,4-c]quinolin-2-yl)pyrimidine-5-carboxamide]	100 to 1000
C=CCN1c2cc(C(F)(F)F)ccc2-c2nc(NC(=O)c3c(OC)ncnc3OC)sc2C1(C)C [compound 88, N-(5-allyl-4,4-dimethyl-7-(trifluoromethyl)-4,5-dihydrothiazolo[5,4-c]quinolin-2-yl)-4,6-dimethoxypyrimidine-5-carboxamide]	100 to 1000
COc1ncnc(OC)c1C(=O)Nc1nc2c(s1)-c1ccc(C(F)(F)F)cc1OC21CC[S+]([O-])CC1 (stereo not shown) [compound 95, 4,6-dimethoxy-N-(1′-oxido-7-(trifluoromethyl)-2′,3′,5′,6′-tetrahydrospiro[chromeno[3,4-d]thiazole-4,4′-thiopyran]-2-yl)pyrimidine-5-carboxamide]	1000 to 10000
